Assay results: patent US8394848B2, “Compounds that modulate intracellular calcium” (Calcimedica, Inc., priority 2008, dated 2013)

Tested on: JR251 or RBL cells
Experiment: Store-operated calcium entry, either JR251 or RBL cells, or both
Assay type: cell-based
Procedure, shortened: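 FLIPR calcium-entry readout in fluo-4-loaded cells held in Ca2+-free HBSS before calcium add-back. For RBL-2H3, store depletion used thapsigargin for 25 min after a 5 min compound pre-incubation, and IC50 was based on the 7 s Upslope. For Orai1/STIM1 stable cells, compound was pre-incubated 30 min and IC50 was based on Peak-Basal.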

IC50, < 10 µM:
CC(C)S(=O)(=O)c1csc(C(=O)Nc2scc(-c3ccc(Cl)cc3)c2C(=O)O)c1Cl [2-(3-chloro-4-(isopropylsulfonyl)thiophene-2-carboxamido)-4-(4-chlorophenyl)thiophene-3-carboxylic acid]
Cc1ccc(-c2csc(NC(=O)c3nc4cccc(F)c4o3)c2C(=O)O)c(F)c1F [4-(2,3-difluoro-4-methylphenyl)-2-(7-fluorobenzo[d]oxazole-2-carboxamido)thiophene-3-carboxylic acid]
O=C(Nc1scc(-c2ccc(F)c(F)c2F)c1C(=O)O)c1nc2ccccc2o1 [2-(benzo[d]oxazole-2-carboxamido)-4-(2,3,4-trifluorophenyl)thiophene-3-carboxylic acid]
O=C(Nc1scc(-c2ccc(Br)cc2)c1C(=O)O)c1cc2ccccn2n1 [4-(4-bromophenyl)-2-(pyrazolo[1,5-a]pyridine-2-carboxamido)thiophene-3-carboxylic acid]
O=C(Nc1scc(-c2ccc(C(F)(F)F)cc2Cl)c1C(=O)O)c1nc2ccccc2o1 [2-(benzo[d]oxazole-2-carboxamido)-4-(2-chloro-4-(trifluoromethyl)phenyl)thiophene-3-carboxylic acid]
O=C(Nc1scc(-c2ccc(Br)cc2)c1C(=O)O)/C(F)=C/c1ccccc1 [(Z)-4-(4-bromophenyl)-2-(2-fluoro-3-phenylacryl amido)thiophene-3-carboxylic acid]
O=C(Nc1scc(-c2ccc(Cl)cc2)c1C(=O)O)c1ccc(Cl)nc1Cl [4-(4-chlorophenyl)-2-(2,6-dichloronicotinamido)thiophene-3-carboxylic acid]
Cc1ccc(C(=O)Nc2scc(-c3ccc(Br)cc3)c2C(=O)O)cn1 [4-(4-bromophenyl)-2-(6-methylnicotinamido)thiophene-3-carboxylic acid]
O=C(Nc1scc(-c2ccc(C3CC3)c(F)c2F)c1C(=O)O)c1cc2ccccc2o1 [2-(benzofuran-2-carboxamido)-4-(4-cyclopropyl-2,3-difluorophenyl)thiophene-3-carboxylic acid]
O=C(Nc1scc(-c2ccc(Cl)cc2)c1C(=O)O)/C(F)=C/c1ccccc1Cl [(Z)-4-(4-chlorophenyl)-2-(3-(2-chlorophenyl)-2-fluoroacrylamido)thiophene-3-carboxylic acid]
O=C(Nc1scc(-c2ccc(Cl)cc2)c1C(=O)O)c1nc2ccccc2o1 [2-(benzo[d]oxazole-2-carboxamido)-4-(4-chlorophenyl)thiophene-3-carboxylic acid]
Cc1nn(C)c2sc(C(=O)Nc3scc(-c4ccc(Br)cc4)c3C(=O)O)cc12 [4-(4-bromophenyl)-2-(1,3-dimethyl-1H-thieno[2,3-c]pyrazole-5-carboxamido)thiophene-3-carboxylic acid]
O=C(Nc1scc(-c2ccc(Cl)cc2)c1C(=O)O)c1nc2c(F)cccc2o1 [4-(4-chlorophenyl)-2-(4-fluorobenzo[d]oxazole-2-carboxamido)thiophene-3-carboxylic acid]
CS(=O)(=O)c1csc(C(=O)Nc2scc(-c3ccc(Cl)cc3)c2C(=O)O)c1Cl [2-(3-chloro-4-(methylsulfonyl)thiophene-2-carboxamido)-4-(4-chlorophenyl)thiophene-3-carboxylic acid]
O=C(Nc1scc(-c2ccc(Br)cc2)c1C(=O)O)c1cnccn1 [4-(4-bromophenyl)-2-(pyrazine-2-carboxamido)thiophene-3-carboxylic acid]
Cc1ccc(-c2csc(NC(=O)c3cc(-c4ccccc4)oc3C)c2C(=O)O)cc1 [2-(2-methyl-5-phenylfuran-3-carboxamido)-4-p-tolylthiophene-3-carboxylic acid]
O=C(Nc1scc(-c2ccc(Cl)cc2)c1C(=O)O)c1nc(C2CC2)cs1 [4-(4-chlorophenyl)-2-(4-cyclopropylthiazole-2-carboxamido)thiophene-3-carboxylic acid]
O=C(CCc1cccc(Cl)c1)Nc1scc(-c2ccc(Cl)cc2)c1C(=O)O [4-(4-chlorophenyl)-2-(3-(3-chlorophenyl)propanamido)thiophene-3-carboxylic acid]
O=C(Nc1scc(-c2cc3ccc(Br)cc3o2)c1C(=O)O)c1cc2ccccc2o1 [2-(benzofuran-2-carboxamido)-4-(6-bromobenzofuran-2-yl)thiophene-3-carboxylic acid]
O=C(Nc1scc(-c2ccc(Cl)cc2)c1C(=O)O)c1cn2ccsc2n1 [4-(4-chlorophenyl)-2-(imidazo[2,1-b]thiazole-6-carboxamido)thiophene-3-carboxylic acid]
O=C(Nc1scc(-c2ccc(Cl)c(Cl)c2)c1C(=O)O)c1nc2ccccc2o1 [2-(benzo[d]oxazole-2-carboxamido)-4-(3,4-dichlorophenyl)thiophene-3-carboxylic acid]
Cc1cc(-c2csc(NC(=O)c3cc4ccccc4o3)c2C(=O)O)c(C)cc1Br [2-(benzofuran-2-carboxamido)-4-(4-bromo-2,5-dimethylphenyl)thiophene-3-carboxylic acid]
Cc1ccc(-c2csc(NC(=O)c3sccc3C)c2C(=O)O)cc1C [4-(3,4-dimethylphenyl)-2-(3-methylthiophene-2-carboxamido)thiophene-3-carboxylic acid]
O=C(O)c1c(-c2ccc(Cl)cc2)csc1NC(=O)C(F)Cc1cc(F)ccc1Cl (stereo not shown) [2-(3-(2-chloro-5-fluorophenyl)-2-fluoropropanamido)-4-(4-chlorophenyl)thiophene-3-carboxylic acid]
O=C(Nc1cccc(F)c1)Nc1scc(-c2ccc(Br)cc2)c1C(=O)O [4-(4-bromophenyl)-2-(3-(3-fluorophenyl)ureido)thiophene-3-carboxylic acid]
O=C(Nc1scc(-c2ccc(Cl)cc2)c1C(=O)O)c1nc2cccc(Br)c2o1 [2-(7-bromobenzo[d]oxazole-2-carboxamido)-4-(4-chlorophenyl) thiophene-3-carboxylic acid]
O=C(O)c1c(-c2ccc(Br)cc2)csc1NC(=O)C(F)Cc1c(F)cccc1Cl (stereo not shown) [4-(4-bromophenyl)-2-(3-(2-chloro-6-fluorophenyl)-2-fluoropropanamido)thiophene-3-carboxylic acid]
Cc1c(-c2csc(NC(=O)c3cc4ccccc4o3)c2C(=O)O)ccc(Cl)c1Cl [2-(benzofuran-2-carboxamido)-4-(3,4-dichloro-2-methylphenyl)thiophene-3-carboxylic acid]
O=C(O)c1c(-c2ccc(Cl)cc2)csc1NC(=O)C(Cl)Cc1ccccc1 (stereo not shown) [2-(2-chloro-3-phenylpropanamido)-4-(4-chlorophenyl)thiophene-3-carboxylic acid]
O=C(Nc1scc(-c2cc3cccc(O)c3o2)c1C(=O)O)c1nc2cccc(F)c2o1 [2-(7-fluorobenzo[d]oxazole-2-carboxamido)-4-(7-hydroxybenzofuran-2-yl)thiophene-3-carboxylic acid]
O=C(C#Cc1ccccc1)Nc1scc(-c2ccc(Cl)cc2)c1C(=O)O [4-(4-chlorophenyl)-2-(3-phenylpropiolamido)thiophene-3-carboxylic acid]
N#Cc1ccc(-c2csc(NC(=O)c3ccc4snnc4c3)c2C(=O)O)cc1 [2-(benzo[d][1,2,3]thiadiazole-5-carboxamido)-4-(4-cyanophenyl)thiophene-3-carboxylic acid]
Cc1ccc(-c2csc(NC(=O)c3ccc(-c4ccccc4)s3)c2C(=O)O)cc1 [2-(5-phenylthiophene-2-carboxamido)-4-p-tolylthiophene-3-carboxylic acid]
O=C(Nc1scc(-c2ccc(Cl)c(F)c2F)c1C(=O)O)c1cc2ccccc2o1 [2-(benzofuran-2-carboxamido)-4-(4-chloro-2,3-difluorophenyl)thiophene-3-carboxylic acid]
O=C(Nc1scc(-c2ccc(Cl)cc2)c1C(=O)O)c1nc2cccc(F)c2o1 [4-(4-chlorophenyl)-2-(7-fluorobenzo[d]oxazole-2-carboxamido)thiophene-3-carboxylic acid]
O=C(Nc1scc(-c2ccc(Br)cc2)c1C(=O)O)OCc1ccccc1Cl [4-(4-bromophenyl)-2-((2-chlorobenzyloxy)carbonylamino)thiophene-3-carboxylic acid]
O=C(Cc1coc2ccccc12)Nc1scc(-c2ccc(Br)cc2)c1C(=O)O [2-(2-(benzofuran-3-yl)acetamido)-4-(4-bromophenyl)thiophene-3-carboxylic acid]
O=C(NCCc1ccccc1)Nc1scc(-c2ccc(Cl)cc2)c1C(=O)O [4-(4-chlorophenyl)-2-(3-phenethylureido)thiophene-3-carboxylic acid]
O=C(CCc1c(Cl)cccc1Cl)Nc1scc(-c2ccc(Br)cc2)c1C(=O)O [4-(4-bromophenyl)-2-(3-(2,6-dichlorophenyl)propanamido)thiophene-3-carboxylic acid]
O=C(Nc1scc(-c2ccc(Cl)c(F)c2)c1C(=O)O)c1ccc2snnc2c1 [2-(benzo[d][1,2,3]thiadiazole-5-carboxamido)-4-(4-chloro-3-fluorophenyl)thiophene-3-carboxylic acid]
O=C(O)c1c(-c2ccc(Cl)cc2)csc1NC(=O)C(F)Cc1c(F)cccc1Cl (stereo not shown) [2-(3-(2-chloro-6-fluorophenyl)-2-fluoropropanamido)-4-(4-chlorophenyl)thiophene-3-carboxylic acid]
Cc1ccc(-c2csc(NC(=O)c3cc4c(F)cccc4o3)c2C(=O)O)c(F)c1F [4-(2,3-difluoro-4-methylphenyl)-2-(4-fluorobenzofuran-2-carboxamido)thiophene-3-carboxylic acid]
O=C(Nc1scc(/C=C/c2ccc(F)cc2)c1C(=O)O)c1cc2ccccc2o1 [(E)-2-(benzofuran-2-carboxamido)-4-(4-fluorostyryl)thiophene-3-carboxylic acid]
